Measured values taken from US12178786B2, “Combination of cellular immunotherapy” (CRAGE medical Co., Limited, priority 2018, dated 2024).

Experiments:
IL2 = assay: Effect of sorafenib on cytokine secretion of CAR T cells (Cytometric Bead Array); format: cell-based, human; conditions: general statement of the applicant's finding
Method: As for the specific steps, referring to the steps in the manual of The Cytometric Bead Array System (BD, USA), which are briefly described as follows:
b) The microspheres (cytometric bead array system, BD, USA) capturing the human cytokine IL2, IFN-γ, and TNF-α are taken to mix in a suspension.
c) The mixture of the microspheres for capturing and detection antibody are added into the standard or supernatant sample, incubating at room temperature in the dark; after the incubation is completed, it is washed with washing buffer, then centrifuging, and discarding the supernatant.
The secretion levels of IL-2, IFN-γ and TNF-α are detected by flow cytometry, and the results are shown in FIGS. 8A, 8B, and 8C, wherein ns means p>0.05; *p<0.05; **p<0.01; ***p<0.001, one-way ANOVA.

[1] = compound II administrated alone in the clinical trial; cited from earlier work

CNC(=O)c1cc(Oc2ccc(NC(=O)Nc3ccc(Cl)c(C(F)(F)F)c3)cc2)ccn1 [sorafenib]
secretion of the cytokine IL2 by CAR T cells (IL2): promote CAR T cells to secrete the cytokine IL2 | approximate concentration in the patient's body [1]: ~6.5 µM
